Assay [1] addresses GDP-bound KRAS wild-type protein (Homo sapiens, UniProt P01116). Put plainly: Binding to KRAS by surface plasmon resonance (SPR), Single Cycle Kinetics. Particulars: SPR, Single Cycle Kinetics, GDP-bound KRAS wild-type protein; read-out: KRAS KD. A general note: Surface plasmon resonance follows binding to a sensor surface in real time, without labels.
Assay [2] deals with GDP-bound NRAS wild-type protein (Homo sapiens, UniProt P01111). In words: Binding to NRAS by surface plasmon resonance (SPR), Single Cycle Kinetics. To be noted: ratio of KD for GDP-bound NRAS wild-type protein to KD for KRAS, SPR.
GDP-bound NRAS wild-type protein, sequence (P01111 whole entry): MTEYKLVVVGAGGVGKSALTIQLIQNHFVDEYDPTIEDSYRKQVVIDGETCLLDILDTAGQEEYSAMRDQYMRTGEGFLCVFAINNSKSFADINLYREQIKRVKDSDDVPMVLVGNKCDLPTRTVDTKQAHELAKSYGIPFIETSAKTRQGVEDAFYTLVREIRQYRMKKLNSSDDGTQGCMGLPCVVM
In assay [3] the target is GDP-bound HRAS wild-type protein (Homo sapiens, UniProt P01112). Put plainly: Binding to HRAS by surface plasmon resonance (SPR), Single Cycle Kinetics. Particulars: ratio of KD for GDP-bound HRAS wild-type protein to KD for KRAS, SPR.
GDP-bound HRAS wild-type protein, sequence (P01112 whole entry): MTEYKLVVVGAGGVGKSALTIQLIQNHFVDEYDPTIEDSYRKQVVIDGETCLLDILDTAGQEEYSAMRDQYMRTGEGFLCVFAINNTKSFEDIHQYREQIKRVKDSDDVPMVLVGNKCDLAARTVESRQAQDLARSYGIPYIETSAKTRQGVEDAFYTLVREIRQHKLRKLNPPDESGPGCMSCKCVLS
Assay [4] relates to human lung cancer strain NCI-H441. In words: cells. To be noted: NCI-H441, 96 h, read-out: NCI-H441 IC50 (nM), NCI-H441 cell proliferation, 4 days, CellTiter-Glo. For orientation: In ATP-based viability assays light output follows the ATP content of the culture.
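Wherever IC50 is given: cell proliferation inhibition after four days measured by CellTiter-Glo.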

GDP-bound KRAS wild-type protein, sequence (P01116 whole entry): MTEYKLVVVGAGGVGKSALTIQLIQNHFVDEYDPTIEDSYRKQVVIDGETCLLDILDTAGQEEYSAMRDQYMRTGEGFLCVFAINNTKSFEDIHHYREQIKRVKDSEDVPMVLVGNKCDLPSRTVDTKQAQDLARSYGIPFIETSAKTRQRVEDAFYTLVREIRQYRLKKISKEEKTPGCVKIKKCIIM

A word on the Kd: it is the equilibrium constant for the complex coming apart. With `CCCN(C)C(=O)[C@@H]1CC(=O)N(C)[C@@H](CC(F)(F)F)C(=O)N[C@@H]([C@@H](C)CC)C(=O)N(C)CC(=O)N(C)[C@H]2C/C=C\CCN(C2=O)[C@@H](Cc2ccc(C(F)(F)F)cc2)C(=O)N(C)CC(=O)N[C@@H](CCc2cc(F)c(C(F)(F)F)c(F)c2)C(=O)N2C[C@H](OCC)C[C@H]2C(=O)NC2(CC(F)(F)C2)C(=O)N(C)[C@@H](C2CCCC2)C(=O)N1C` [PP1734], in assay [1], the Kd came to 0.17 nM. Further, the “NRAS/KRAS (KD ratio)” value in assay [2] is “A (a compound having 10 or more and less than 20 is denoted as A)”. In addition, in assay [3], the “HRAS/KRAS (KD ratio)” value is “A (a compound having 10 or more and less than 20 is denoted as A)”. For the same compound, the IC50 in assay [4] was found to be 4.4 nM.

With `CCC[C@H]1C(=O)N[C@@H]([C@@H](C)CC)C(=O)N(C)CC(=O)N(C)[C@H]2C/C=C\CCN(C2=O)[C@@H](Cc2ccc(C(F)(F)F)cc2)C(=O)N(C)CC(=O)N[C@@H](CCc2cc(F)c(C(F)(F)F)c(F)c2)C(=O)N2C[C@H](OCC)C[C@H]2C(=O)NC2(CC(F)(F)C2)C(=O)N(C)[C@@H](C2CCCC2)C(=O)N(C)[C@H](C(=O)N(C)CC)CC(=O)N1C` [PP1735], in assay [1], the Kd came to 0.081 nM. The “NRAS/KRAS (KD ratio)” value in assay [2] is “AA (a compound having 20 or more is denoted as AA)”. Also, the “HRAS/KRAS (KD ratio)” value in assay [3] was “A (a compound having 10 or more and less than 20 is denoted as A)”. For the same compound, the IC50 in assay [4] is 2.2 nM.

For the compound `CCC[C@H]1C(=O)N[C@@H]([C@@H](C)CC)C(=O)N(C)CC(=O)N(C)[C@H]2C/C=C\CCN(C2=O)[C@@H](Cc2ccc(C(F)(F)F)cc2)C(=O)N(C)CC(=O)N[C@@H](CCc2cc(F)c(C(F)(F)F)c(F)c2)C(=O)N2C[C@H](OCC)C[C@H]2C(=O)NC2(CC(F)(F)C2)C(=O)N(C)[C@@H](C2CCCC2)C(=O)N(C)[C@H](C(=O)N(C)CCC)CC(=O)N1C` [PP1736], the dissociation constant (Kd) in assay [1] worked out at 0.13 nM. Besides, the “NRAS/KRAS (KD ratio)” value in assay [2] was “A (a compound having 10 or more and less than 20 is denoted as A)”. Also, in assay [3], the “HRAS/KRAS (KD ratio)” value is “A (a compound having 10 or more and less than 20 is denoted as A)”. Also, in assay [4], the IC50 is 3.6 nM.

For the compound `C#CC[C@H]1C(=O)N[C@@H]([C@@H](C)CC)C(=O)N(C)CC(=O)N(C)[C@H]2C/C=C\CCN(C2=O)[C@@H](Cc2ccc(C(F)(F)F)cc2)C(=O)N(C)CC(=O)N[C@@H](CCc2cc(F)c(C(F)(F)F)c(F)c2)C(=O)N2C[C@H](OCC)C[C@H]2C(=O)NC2(CC(F)(F)C2)C(=O)N(C)[C@@H](C2CCCC2)C(=O)N(C)[C@H](C(=O)N(C)CCC)CC(=O)N1C` [PP1737], in assay [1], the dissociation constant (Kd) was 0.11 nM. Also, the “NRAS/KRAS (KD ratio)” value in assay [2] was “A (a compound having 10 or more and less than 20 is denoted as A)”. Moreover, in assay [3], the “HRAS/KRAS (KD ratio)” value is “A (a compound having 10 or more and less than 20 is denoted as A)”. The IC50 in assay [4] amounted to 2.7 nM.

On to `CCO[C@@H]1C[C@H]2C(=O)NC3(CC(F)(F)C3)C(=O)N(C)[C@@H](C3CCCC3)C(=O)N(C)[C@H](C(=O)N(C)CC)CC(=O)N(C)[C@@H](CC3CC3)C(=O)N[C@@H]([C@@H](C)CC)C(=O)N(C)CC(=O)N(C)[C@H]3C/C=C\CCN(C3=O)[C@@H](Cc3ccc(C(F)(F)F)cc3)C(=O)N(C)CC(=O)N[C@@H](CCc3cc(F)c(C(F)(F)F)c(F)c3)C(=O)N2C1` [PP1738], for which the Kd in assay [1] was determined as 0.071 nM. Further, in assay [2], the “NRAS/KRAS (KD ratio)” value is reported as “AA (a compound having 20 or more is denoted as AA)”. In addition, the “HRAS/KRAS (KD ratio)” value in assay [3] was “A (a compound having 10 or more and less than 20 is denoted as A)”. In addition, in assay [4], the IC50 was 5.1 nM.

`CCCN(C)C(=O)[C@@H]1CC(=O)N(C)[C@@H](CC2CC2)C(=O)N[C@@H]([C@@H](C)CC)C(=O)N(C)CC(=O)N(C)[C@H]2C/C=C\CCN(C2=O)[C@@H](Cc2ccc(C(F)(F)F)cc2)C(=O)N(C)CC(=O)N[C@@H](CCc2cc(F)c(C(F)(F)F)c(F)c2)C(=O)N2C[C@H](OCC)C[C@H]2C(=O)NC2(CC(F)(F)C2)C(=O)N(C)[C@@H](C2CCCC2)C(=O)N1C` [PP1739]: the Kd in assay [1] was 0.054 nM. Moreover, the “NRAS/KRAS (KD ratio)” value in assay [2] is “AA (a compound having 20 or more is denoted as AA)”. For the same compound, the “HRAS/KRAS (KD ratio)” value in assay [3] was “AA (a compound having 20 or more is denoted as AA)”. Moreover, in assay [4], the IC50 came to 5.5 nM.
